The record followed here is US11866430B2, “Naphthyridinone compounds useful as T cell activators” (priority 2018, dated 2024).

In one test the target is human DGKα (Homo sapiens (Human), UniProt P23743). The test can be described thus: biochemical. As to conditions: detergent/lipid micelle substrate; read-out: DGKα IC50. The procedure: (§1) The DGKα and DGKζ reactions were performed using either extruded liposome (DGKα and DGKζ LIPGLO assays) or detergent/lipid micelle substrate (DGKα and DGKζ assays). The reactions were carried out in 50 mM MOPS pH 7.5, 100 mM NaCl, 10 mM MgCl2, 1 μM CaCl2, and 1 mM DTT (assay buffer). The reactions using a detergent/lipid micelle substrate also contained 50 mM octyl B-D-glucopyranoside. […] The lipid substrate concentrations were […], 0.25 mM DAG, and 2.75 mM PC for the extruded liposome reactions.
human DGKα, sequence (P23743 other isoform, or with tags, fused parts or gaps): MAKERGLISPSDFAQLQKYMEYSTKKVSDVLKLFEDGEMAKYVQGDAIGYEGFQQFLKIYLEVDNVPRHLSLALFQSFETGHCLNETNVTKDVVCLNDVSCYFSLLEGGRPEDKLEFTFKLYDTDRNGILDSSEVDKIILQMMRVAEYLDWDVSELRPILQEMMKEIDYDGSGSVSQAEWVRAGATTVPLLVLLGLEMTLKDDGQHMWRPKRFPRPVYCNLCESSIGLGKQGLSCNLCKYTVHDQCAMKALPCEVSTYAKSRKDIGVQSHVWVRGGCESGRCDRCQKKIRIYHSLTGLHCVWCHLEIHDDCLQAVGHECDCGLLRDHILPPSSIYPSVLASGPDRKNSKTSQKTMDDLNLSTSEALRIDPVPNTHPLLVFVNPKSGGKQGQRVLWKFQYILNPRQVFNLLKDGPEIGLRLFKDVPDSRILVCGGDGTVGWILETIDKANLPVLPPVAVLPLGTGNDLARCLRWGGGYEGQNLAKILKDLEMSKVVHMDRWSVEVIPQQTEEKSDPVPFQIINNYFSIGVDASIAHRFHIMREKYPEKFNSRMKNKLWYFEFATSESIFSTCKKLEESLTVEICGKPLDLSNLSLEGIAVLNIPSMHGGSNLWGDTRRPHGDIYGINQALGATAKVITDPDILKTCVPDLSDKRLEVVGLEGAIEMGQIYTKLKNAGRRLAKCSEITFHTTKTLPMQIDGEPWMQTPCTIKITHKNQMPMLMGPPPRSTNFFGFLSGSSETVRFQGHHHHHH
(§2) The compound inhibition studies were carried out as follows: 50 nL droplets of each test compound (top concentration 10 mM with 11 point, 3-fold dilution series for each compound) solubilized in DMSO were transferred to wells of a white 1536 well plate (Corning 3725). A 5 mL enzyme/substrate solution at 2× final reaction concentration was prepared by combining 2.5 mL 4× enzyme solution (20 nM DGKα or DGKζ (prepared as described below) in assay buffer) and 2.5 mL of either 4× liposome or 4× detergent/lipid micelle solution (compositions described below) and incubated at room temperature for 10 minutes. Next, 1 μL 2× enzyme/substrate solution was added to wells containing the test compound and reactions were initiated with the addition of 1 μL 300 uM ATP. The reactions were allowed to proceed for 1 hr, after which 2 μL Glo Reagent (Promega V9101) was added and incubated for 40 minutes. Next, 4 μL Kinase Detection Reagent was added and incubated for 30 minutes. Luminescence was recorded using an EnVision microplate reader. […] The compounds were evaluated at 11 concentrations to determine IC50.
(§3) The detergent/lipid micelle was prepared by combining 15 g phosphatidylserine (Avanti 840035P) and 1 g diacylglycerol (800811O) and dissolving into 150 mL chloroform in a 2 L round bottom flask. Chloroform was removed under high vacuum by rotary evaporation. The resulting colorless, tacky oil was resuspended in 400 mL 50 mM MOPS pH 7.5, 100 mM NaCl, 20 mM NaF, 10 mM MgCl2, 1 μM CaCl2), 1 mM DTT, and 200 mM octyl glucoside by vigorous mixing. The lipid/detergent solution was split into 5 mL aliquots and stored at −80° C.
(§4) Human DGK-alpha-TVMV-His-pFBgate and human DCK-zeta-transcript variant-2-TVMV-His-pFBgate baculovirus samples were generated using the Bac-to-Bac baculovirus expression system (Invitrogen) according to the manufacturer's protocol. The DNA used for expression of DGK-alpha and DGK-zeta have SEQ ID NOs: 1 and 3, respectively. Baculovirus amplification was achieved using infected Sf9 cells at 1:1500 virus/cell ratios, and grown for 65 hours at 27° C. post-transfection.
(§5) The expression scale up for each protein was carried out in the Cellbag 50 L WAVE-Bioreactor System 20/50 from GE Healthcare Bioscience. 12 L of 2×10^6 cells/mL Sf9 cells (Expression System, Davis, Calif.) grown in ESF921 insect medium (Expression System) were infected with virus stock at 1:200 virus/cell ratios, and grown for 66-68 hours at 27° C. post-infection. The infected cell culture was harvested by centrifugation at 2000 rpm for 20 min 4° C. in a SORVALL® RC12BP centrifuge. The cell pellets were stored at −70° C. until purification.
(§6) Full length human DGKα and DGKζ, each expressed containing a TVMV-cleavable C-terminal Hexa-His tag sequence (SEQ ID NOs: 2 and 4, respectively) and produced as described above, were purified from Sf) baculovirus-infected insect cell paste. The cells were lysed using nitrogen cavitation method with a nitrogen bomb (Parr Instruments), and the lysates were clarified by centrifugation. […] The three steps column chromatography included nickel affinity resin capture (i.e. HisTrap FF crude, GE Healthcare), followed by size exclusion chromatography (i.e. HiLoad 26/600 Superdex 200 prep grade, GE Healthcare for DGK-alpha, and HiPrep 26/600 Sephacryl S 300_HR, GE Healthcare for DGK-zeta).

In the next test the target is human DGKζ (Homo sapiens (Human), UniProt Q13574). Description: DGKζ assay (detergent/lipid micelle substrate). Format: biochemical. The procedure: as §1, §2, §3, §4, §5, §6
human DGKζ, sequence (Q13574 other isoform, or with tags, fused parts or gaps): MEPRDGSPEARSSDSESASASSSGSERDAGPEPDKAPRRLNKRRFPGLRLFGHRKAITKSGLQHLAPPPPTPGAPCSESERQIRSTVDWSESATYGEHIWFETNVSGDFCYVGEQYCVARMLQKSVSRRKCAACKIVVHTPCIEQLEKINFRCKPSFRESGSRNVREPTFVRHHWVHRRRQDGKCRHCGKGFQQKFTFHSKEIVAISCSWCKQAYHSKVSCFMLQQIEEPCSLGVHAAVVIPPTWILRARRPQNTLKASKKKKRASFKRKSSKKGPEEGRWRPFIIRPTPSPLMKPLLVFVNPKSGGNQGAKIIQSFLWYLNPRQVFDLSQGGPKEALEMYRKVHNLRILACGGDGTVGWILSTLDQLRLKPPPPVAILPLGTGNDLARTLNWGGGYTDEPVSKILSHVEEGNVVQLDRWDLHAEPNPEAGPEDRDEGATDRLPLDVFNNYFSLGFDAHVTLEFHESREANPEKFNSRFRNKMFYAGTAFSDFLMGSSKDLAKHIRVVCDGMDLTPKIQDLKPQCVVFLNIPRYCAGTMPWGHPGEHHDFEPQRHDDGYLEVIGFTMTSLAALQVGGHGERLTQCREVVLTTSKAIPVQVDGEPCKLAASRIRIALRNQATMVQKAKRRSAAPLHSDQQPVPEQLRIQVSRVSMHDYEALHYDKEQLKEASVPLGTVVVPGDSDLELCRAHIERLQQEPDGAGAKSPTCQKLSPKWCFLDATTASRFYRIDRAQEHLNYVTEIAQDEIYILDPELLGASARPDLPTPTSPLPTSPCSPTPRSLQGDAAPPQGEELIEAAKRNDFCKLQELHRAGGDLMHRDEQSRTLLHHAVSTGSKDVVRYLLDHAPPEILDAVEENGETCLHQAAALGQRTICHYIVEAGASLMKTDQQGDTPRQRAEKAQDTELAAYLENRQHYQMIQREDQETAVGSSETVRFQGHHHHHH
In test [1] the test system is pre-activated CD4 T cells and Raji cells. Description: Raji CD4 T Cell IL2 Assay. The format is cell-based.
Where [2] appears, read: detergent/lipid micelle substrate, read-out: DGKζ IC50.

Each structure is given as a SMILES string. Read-outs that look alike come from different tables or passages of the source.

`COc1ccc2c(c1)C(N1CCN(c3c([N+](=O)[O-])c(=O)n(C)c4ccc(C#N)nc34)CC1)CC2` (stereo not drawn) [Example 46, 8-(4-(6-methoxy-2,3-dihydro-1H-inden-1-yl)piperazin-1-yl)-5-methyl-7-nitro-6-oxo-5,6-dihydro-1,5-naphthyridine-2-carbonitrile]: the IC50 was found to be 8.5 µM at human DGKα; 2.7 µM at human DGKζ (setting [2]); 0.13 µM in test [1] (Homo sapiens, Raji).

As to `Cn1c(=O)c(C#N)c(N2CCN(Cc3ccc(Cl)cc3Cl)CC2)c2nc(Cl)ccc21` [Example 310, 6-chloro-4-{4-[(2,4-dichlorophenyl)methyl]piperazin-1-yl}-1-methyl-2-oxo-1,2-dihydro-1,5-naphthyridine-3-carbonitrile], the IC50 was 0.97 µM on human DGKα; over 240 µM at human DGKζ (setting [2]); 0.22 µM in test [1] (Homo sapiens, Raji).

Regarding `Cc1ccc2c(n1)c(N1CCN(Cc3cc(OC(F)(F)F)ccc3O)CC1)c(C#N)c(=O)n2C` [Example 262, 4-(4-{[2-hydroxy-5-(trifluoromethoxy)phenyl]methyl}piperazin-1-yl)-1,6-dimethyl-2-oxo-1,2-dihydro-1,5-naphthyridine-3-carbonitrile], the IC50 on human DGKα is 0.52 µM; at human DGKζ (setting [2]) it was over 240 µM; in test [1] (Homo sapiens, Raji), 0.028 µM.

As to `Cn1c(=O)c(C#N)c(N2CCN(Cc3c(O)cccc3Br)CC2)c2nc(Br)ccc21` [Example 271, 6-bromo-4-{4-[(2-bromo-6-hydroxyphenyl)methyl]piperazin-1-yl}-1-methyl-2-oxo-1,2-dihydro-1,5-naphthyridine-3-carbonitrile], the IC50 at human DGKα was determined as 1.1 µM; on human DGKζ (setting [2]), 110 µM; in test [1] (Homo sapiens, Raji), 0.061 µM.

As for `Cn1c(=O)c(C#N)c(N2CCN(C(CO)c3ccc(F)cc3)CC2)c2nc(Br)ccc21` (stereo not drawn) [Example 31, 6-bromo-4-{4-[1-(4-fluorophenyl)-2-hydroxyethyl]piperazin-1-yl}-1-methyl-2-oxo-1,2-dihydro-1,5-naphthyridine-3-carbonitrile], the IC50 was 1.2 µM at human DGKα; over 240 µM at human DGKζ (setting [2]); 1.8 µM in test [1] (Homo sapiens, Raji).

Regarding `Cn1c(=O)c(C#N)c(N2CCN(Cc3cccc4nc[nH]c34)CC2)c2nc(Cl)ccc21` [Example 359, 4-{4-[(1H-1,3-benzodiazol-7-yl)methyl]piperazin-1-yl}-6-chloro-1-methyl-2-oxo-1,2-dihydro-1,5-naphthyridine-3-carbonitrile], the IC50 is 19 µM on human DGKα; over 240 µM at human DGKζ (setting [2]); 8 µM in test [1] (Homo sapiens, Raji).

As to `COc1cc(F)ccc1C(c1ccc(F)cc1)N1CCN(c2c([N+](=O)[O-])c(=O)n(C)c3ccc(Br)nc23)CC1` (single isomer, unassigned) [Example 57, 6-bromo-4-(4-((4-fluoro-2-methoxyphenyl)(4-fluorophenyl)methyl)piperazin-1-yl)-1-methyl-3-nitro-1,5-naphthyridin-2(1H)-one], the figures for the IC50 (at human DGKα; on human DGKζ (setting [2]); in test [1]) were 1.6 µM, 110 µM and 0.14 µM, respectively.

`C#CCOc1ccccc1C(c1ccc(F)cc1)N1CCN(c2c(C#N)c(=O)n(C)c3ccc(Cl)nc23)CC1` (stereo not drawn) [Example 39, 6-chloro-4-{4-[(4-fluorophenyl)[2-(prop-2-yn-1-yloxy)phenyl]methyl]piperazin-1-lv}-1-methyl-2-oxo-1,2-dihydro-1,5-naphthyridine-3-carbonitrile]: the IC50 at human DGKα was 50 µM; on human DGKζ (setting [2]), over 240 µM; in test [1] (Homo sapiens, Raji), 0.64 µM.

`COCCn1c(=O)c([N+](=O)[O-])c(N2CCN(C(c3ccccc3)c3ccccc3)CC2)c2ncccc21` [Example 244, 4-[4-(diphenylmethyl)piperazin-1-yl]-1-(2-methoxyethyl)-3-nitro-1,2-dihydro-1,5-naphthyridin-2-one]: the IC50 on human DGKα was 32 µM; at human DGKζ (setting [2]), over 81 µM; in test [1] (Homo sapiens, Raji), 0.69 µM.

Turning to `Cc1cccc(OCc2cncc(C#N)c2)c1C(c1ccc(F)cc1)N1CCN(c2c([N+](=O)[O-])c(=O)n(C)c3ccc(Br)nc23)CC1` (single isomer, unassigned) [Example 89, 5-((2-((4-(6-bromo-1-methyl-3-nitro-2-oxo-1,2-dihydro-1,5-naphthyridin-4-yl)piperazin-1-yl)(4-fluorophenyl)methyl)-3-methylphenoxy)methyl)nicotinonitrile], the IC50 at human DGKα was 41 µM; at human DGKζ (setting [2]), over 240 µM; in test [1], 2.8 µM.

Consider `Cn1c(=O)c(C#N)c(N2CCN(Cc3cc(Cl)cc(Cl)c3O)CC2)c2nc(Cl)ccc21` [Example 307, 6-chloro-4-{4-[(3,5-dichloro-2-hydroxyphenyl)methyl]piperazin-1-yl}-1-methyl-2-oxo-1,2-dihydro-1,5-naphthyridine-3-carbonitrile], for which the concentration for half-maximal inhibition (IC50) was 1.8 µM at human DGKα; over 81 µM at human DGKζ (setting [2]); 0.21 µM in test [1] (Homo sapiens, Raji).

`Cn1c(=O)c([N+](=O)[O-])c(N2CCN(C(c3ccccc3)c3ccccc3)CC2)c2nc(Br)ccc21` [Example 52, 4-(4-benzhydrylpiperazin-1-yl)-6-bromo-1-methyl-3-nitro-1,5-naphthyridin-2(1H)-one]: the half-inhibitory concentration (IC50) is 7.8 µM at human DGKα; 150 µM at human DGKζ (setting [2]); 0.056 µM in test [1] (Homo sapiens, Raji).

Take `Cn1c(=O)c([N+](=O)[O-])c(N2CCN(C(c3ccc(F)cc3)c3cccc(F)c3O)CC2)c2nc(Br)ccc21` (single isomer, unassigned) [Example 75, 6-bromo-4-(4-((3-fluoro-2-hydroxyphenyl)(4-fluorophenyl)methyl)piperazin-1-yl)-1-methyl-3-nitro-1,5-naphthyridin-2(1H)-one]: the IC50 on human DGKα was 2.6 µM; against human DGKζ (DGKζ IC50, detergent/lipid micelle substrate) it was 130 µM; in test [1] it was 0.14 µM.

With `N#CCn1c(=O)c([N+](=O)[O-])c(N2CCN(C(c3ccc(F)cc3)c3ccc(F)cc3)CC2)c2nc(C#N)ccc21` [Example 152, 8-(4-(bis(4-fluorophenyl)methyl)piperazin-1-yl)-5-(cyanomethyl)-7-nitro-6-oxo-5,6-dihydro-1,5-naphthyridine-2-carbonitrile], the IC50 at human DGKα came out at 150 µM; at human DGKζ (setting [2]) it was 3.9 µM; in test [1] (Homo sapiens, Raji) it was 0.15 µM.

`COCCn1c(=O)c([N+](=O)[O-])c(N2CCN(C(C)c3ccc(F)cc3)CC2)c2nc(C#N)ccc21` (single isomer, unassigned) [Example 149, 8-(4-(1-(4-fluorophenyl)ethyl)piperazin-1-yl)-5-(2-methoxyethyl)-7-nitro-6-oxo-5,6-dihydro-1,5-naphthyridine-2-carbonitrile]: the IC50 on human DGKα came to 47 µM; on human DGKζ (setting [2]) it was 86 µM; in test [1], 0.064 µM.

Regarding `C=CCOc1cc(F)cc2c1C(N1CCN(c3c(C#N)c(=O)n(C)c4ccc(Cl)nc34)CC1)CC2` (stereo not drawn) [Example 200, 4-(4-(7-(allyloxy)-5-fluoro-2,3-dihydro-1H-inden-1-yl)piperazin-1-yl)-6-chloro-1-methyl-2-oxo-1,2-dihydro-1,5-naphthyridine-3-carbonitrile], the IC50 was 24 µM at human DGKα; over 240 µM at human DGKζ (setting [2]); 1.6 µM in test [1] (Homo sapiens, Raji).

As for `Cc1ccc2c(n1)c(N1CCN(Cc3cc(Cl)ccc3O)CC1)c(C#N)c(=O)n2C` [Example 296, 4-{4-[(5-chloro-2-hydroxyphenyl)methyl]piperazin-1-yl}-1,6-dimethyl-2-oxo-1,2-dihydro-1,5-naphthyridine-3-carbonitrile], the IC50 on human DGKα was 0.98 µM; at human DGKζ (setting [2]), 150 µM; in test [1] (Homo sapiens, Raji) it was 0.15 µM.
